One test deals with T1, EGFR L858R (Homo sapiens, UniProt P00533, L858R).
T1 construct: purchased SignalChem E10-122BG
The test is described as follows: Biochemical EGFR inhibition assay (Caliper mobility shift), EGFR L858R. Particulars: read-out: Enz EGFR_L858R IC50.

A further test deals with T2, EGFR (d746-750) (Homo sapiens, UniProt P00533, DEL746-750).
T2 construct: purchased SignalChem E10-122JG
As to the kind of experiment: Biochemical EGFR inhibition assay (Caliper mobility shift), EGFR (d746-750). Particulars: read-out: Enz EGFR_Exon19-del746-750 IC50.

Test [1] has as its target intracellular phosphorylation of EGFR (Tyr1068) in PC-9 cells (Ex19Del) (Homo sapiens, UniProt P00533, DEL746-750). The test is described as follows: PC-9 pEGFR AlphaLISA assay. The class given is cell-based. To be noted: 4 hours compound incubation, read-out: Ext pEGFR_PC-9 Ex19Del IC50. A general note: Alpha assays give light when donor and acceptor beads are brought close together.

Where [2] appears, read: 1.0 mM ATP or ATP Km, room temperature (25° C.).

Like-named read-outs stand apart in the source and are kept apart here. Bounds are passed on as bounds.

This passage reports IC50 results from patent US12662465B2, “EGFR inhibitors” (Blueprint Medicines Corporation, priority 2021, dated 2026).

T2 sequence (P00533 with tags, fused parts or gaps DEL746-750 limits assumed): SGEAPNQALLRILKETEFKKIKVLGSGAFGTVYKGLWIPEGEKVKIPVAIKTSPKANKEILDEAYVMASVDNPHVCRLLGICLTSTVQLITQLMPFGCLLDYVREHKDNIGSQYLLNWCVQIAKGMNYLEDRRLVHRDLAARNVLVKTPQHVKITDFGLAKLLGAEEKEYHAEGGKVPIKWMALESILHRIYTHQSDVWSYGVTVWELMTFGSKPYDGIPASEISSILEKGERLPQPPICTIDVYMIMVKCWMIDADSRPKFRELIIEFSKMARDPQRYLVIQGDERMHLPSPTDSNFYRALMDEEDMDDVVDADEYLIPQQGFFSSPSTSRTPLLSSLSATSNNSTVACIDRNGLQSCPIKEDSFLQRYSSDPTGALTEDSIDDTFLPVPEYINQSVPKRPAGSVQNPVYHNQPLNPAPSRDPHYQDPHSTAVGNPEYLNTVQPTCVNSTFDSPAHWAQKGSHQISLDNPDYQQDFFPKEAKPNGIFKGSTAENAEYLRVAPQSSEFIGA
T1 sequence (P00533 25-1210 L858R): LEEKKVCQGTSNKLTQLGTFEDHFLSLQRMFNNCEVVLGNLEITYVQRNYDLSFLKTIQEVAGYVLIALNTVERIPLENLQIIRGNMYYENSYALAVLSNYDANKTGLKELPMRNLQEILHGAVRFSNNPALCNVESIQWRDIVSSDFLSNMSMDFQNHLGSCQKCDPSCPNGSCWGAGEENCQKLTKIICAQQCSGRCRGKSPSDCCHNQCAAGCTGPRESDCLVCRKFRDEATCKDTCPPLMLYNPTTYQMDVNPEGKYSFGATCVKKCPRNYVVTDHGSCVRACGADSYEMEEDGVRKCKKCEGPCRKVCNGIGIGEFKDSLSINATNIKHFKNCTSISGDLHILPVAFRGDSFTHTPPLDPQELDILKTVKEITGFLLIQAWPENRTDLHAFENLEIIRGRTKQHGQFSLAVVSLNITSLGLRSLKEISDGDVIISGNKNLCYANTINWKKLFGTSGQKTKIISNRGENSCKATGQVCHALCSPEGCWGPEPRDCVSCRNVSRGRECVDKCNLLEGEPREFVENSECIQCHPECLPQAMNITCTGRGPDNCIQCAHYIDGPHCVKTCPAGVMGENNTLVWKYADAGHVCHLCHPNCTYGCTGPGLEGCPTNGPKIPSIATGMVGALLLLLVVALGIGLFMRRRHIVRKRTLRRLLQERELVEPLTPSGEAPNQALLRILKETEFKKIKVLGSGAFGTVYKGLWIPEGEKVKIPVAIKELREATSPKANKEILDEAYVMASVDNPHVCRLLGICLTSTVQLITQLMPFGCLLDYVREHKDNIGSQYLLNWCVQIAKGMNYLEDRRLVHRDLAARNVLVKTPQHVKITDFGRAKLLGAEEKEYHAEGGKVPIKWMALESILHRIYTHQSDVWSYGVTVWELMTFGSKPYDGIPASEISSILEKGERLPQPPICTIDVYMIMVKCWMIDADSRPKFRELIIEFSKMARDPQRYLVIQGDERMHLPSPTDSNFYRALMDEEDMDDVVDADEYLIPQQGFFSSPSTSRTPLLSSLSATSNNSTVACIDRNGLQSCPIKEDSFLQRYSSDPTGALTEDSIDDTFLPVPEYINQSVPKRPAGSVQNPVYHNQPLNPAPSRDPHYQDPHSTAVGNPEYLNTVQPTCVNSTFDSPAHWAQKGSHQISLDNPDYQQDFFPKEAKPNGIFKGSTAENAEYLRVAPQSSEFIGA
Sequence of intracellular phosphorylation of EGFR (Tyr1068) in PC-9 cells (Ex19Del) (P00533 with tags, fused parts or gaps DEL746-750): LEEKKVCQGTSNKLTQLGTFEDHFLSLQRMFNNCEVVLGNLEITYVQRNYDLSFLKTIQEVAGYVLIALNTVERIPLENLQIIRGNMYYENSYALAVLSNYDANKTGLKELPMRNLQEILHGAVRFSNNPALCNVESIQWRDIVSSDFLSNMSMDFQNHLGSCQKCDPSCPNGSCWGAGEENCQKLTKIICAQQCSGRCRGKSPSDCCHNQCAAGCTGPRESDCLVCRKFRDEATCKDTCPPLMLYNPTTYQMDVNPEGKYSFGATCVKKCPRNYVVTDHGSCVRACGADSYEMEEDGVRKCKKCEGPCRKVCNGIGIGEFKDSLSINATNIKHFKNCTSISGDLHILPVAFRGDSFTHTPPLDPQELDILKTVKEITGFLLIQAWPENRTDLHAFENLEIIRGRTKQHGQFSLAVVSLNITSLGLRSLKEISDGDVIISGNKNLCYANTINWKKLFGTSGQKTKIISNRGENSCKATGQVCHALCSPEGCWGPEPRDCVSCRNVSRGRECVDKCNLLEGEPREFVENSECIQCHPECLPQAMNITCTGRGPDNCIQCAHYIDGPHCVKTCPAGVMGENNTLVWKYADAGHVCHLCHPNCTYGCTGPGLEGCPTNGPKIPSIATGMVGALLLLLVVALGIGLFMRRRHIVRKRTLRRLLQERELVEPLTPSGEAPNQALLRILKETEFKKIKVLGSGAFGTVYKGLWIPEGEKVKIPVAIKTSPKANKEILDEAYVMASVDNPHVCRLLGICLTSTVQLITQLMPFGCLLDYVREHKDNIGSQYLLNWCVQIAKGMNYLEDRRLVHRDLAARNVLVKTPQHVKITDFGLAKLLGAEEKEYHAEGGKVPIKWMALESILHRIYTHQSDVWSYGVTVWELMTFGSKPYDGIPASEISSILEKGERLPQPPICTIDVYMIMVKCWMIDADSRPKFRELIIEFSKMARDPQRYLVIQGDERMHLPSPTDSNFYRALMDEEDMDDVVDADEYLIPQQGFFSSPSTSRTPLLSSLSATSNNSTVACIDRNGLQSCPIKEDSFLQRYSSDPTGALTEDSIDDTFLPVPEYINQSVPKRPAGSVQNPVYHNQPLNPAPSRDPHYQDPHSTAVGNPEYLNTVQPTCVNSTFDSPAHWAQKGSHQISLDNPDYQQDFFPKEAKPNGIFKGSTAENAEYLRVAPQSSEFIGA

For `C[C@@H](Oc1cc(-c2cnn(C)c2)cc2ncnc(Nc3cc(F)c4ncccc4c3F)c12)C1COC1` [Example 9, (R)—N-(5,8-difluoroquinolin-6-yl)-7-(1-methyl-1H-pyrazol-4-yl)-5-(1-(oxetan-3-yl)ethoxy)quinazolin-4-amine], the IC50 (in general, the concentration that gives 50% inhibition) on EGFR L858R was below 10 nM; on EGFR (d746-750) it was below 10 nM; in test [1], at most 10 nM.

Turning to `Cc1cnn(-c2cc(O[C@H](C)CN(C)C)c3c(Nc4ccc5ncccc5c4F)ncnc3c2)c1` [Example 83, (R)-5-((1-(dimethylamino)propan-2-yl)oxy)-N-(5-fluoroquinolin-6-yl)-7-(4-methyl-1H-pyrazol-1-yl)quinazolin-4-amine], the IC50 at EGFR L858R is below 10 nM; at EGFR (d746-750) it was below 10 nM; in test [1] it was at most 10 nM.

Take `CC[C@H](Oc1cc(-c2cnn(C)c2)cc2ncnc(Nc3ccc4ncccc4c3F)c12)C1COC1` (single isomer, unassigned) [Example 23, (S)—N-(5-fluoroquinolin-6-yl)-7-(1-methyl-1H-pyrazol-4-yl)-5-(1-(oxetan-3-yl)propoxy)quinazolin-4-amine or ((R)—N-(5-fluoroquinolin-6-yl)-7-(1-methyl-1H-pyrazol-4-yl)-5-(1-(oxetan-3-yl)propoxy)quinazolin-4-amine]: the IC50 at EGFR L858R (setting [2]) is below 10 nM; on EGFR (d746-750) (setting [2]) it was below 10 nM; in test [1] it was at most 10 nM.

As to `CN1CC[C@H](Oc2cc(-c3cnn(C)c3)cc3ncnc(Nc4ccc5ncccc5c4F)c23)C1=O` [Example 25, (S)-3-((4-((5-fluoroquinolin-6-yl)amino)-7-(1-methyl-1H-pyrazol-4-yl)quinazolin-5-yl)oxy)-1-methylpyrrolidin-2-one], the IC50 at EGFR L858R was below 10 nM; on EGFR (d746-750) it was below 10 nM; in test [1], 10.1 to 50 nM.

In the case of `C[C@H](CN(C)C)Oc1cc(-c2cnn(C)c2)cc2ncnc(Nc3ccc4ncccc4c3F)c12` (single isomer, unassigned) [Example 5, (R)-5-((1-(dimethylamino)propan-2-yl)oxy)-N-(5-fluoroquinolin-6-yl)-7-(1-methyl-1H-pyrazol-4-yl)quinazolin-4-amine or (S)-5-((1-(dimethylamino)propan-2-yl)oxy)-N-(5-fluoroquinolin-6-yl)-7-(1-methyl-1H-pyrazol-4-yl)quinazolin-4-amine], the IC50 at EGFR L858R (setting [2]) was below 10 nM; at EGFR (d746-750) (setting [2]), below 10 nM; in test [1], at most 10 nM.

Regarding `COCC(CO)[C@@H](C)Oc1cc(-c2cnn(C)c2)cc2ncnc(Nc3ccc4ncccc4c3F)c12` (stereo partly drawn) [Example 112, (3R)-3-((4-((5-fluoroquinolin-6-yl)amino)-7-(1-methyl-1H-pyrazol-4-yl)quinazolin-5-yl)oxy)-2-(methoxymethyl)butan-1-ol], the IC50 is below 10 nM at EGFR L858R, below 10 nM on EGFR (d746-750) and at most 10 nM in test [1].

In the case of `[2H]c1ccc2cc(Nc3ncnc4cc(-c5cnn(C)c5)cc(O[C@H](C)CN(C)C)c34)ccc2n1` [Example 156, (R)-5-((1-(dimethylamino)propan-2-yl)oxy)-7-(1-methyl-1H-pyrazol-4-yl)-N-(quinolin-6-yl-2-d)quinazolin-4-amine], the IC50 on EGFR L858R was below 10 nM; at EGFR (d746-750), below 10 nM; in test [1] it was at most 10 nM.

Turning to `COC1CCN(c2cc(O[C@H](C)C3COC3)c3c(Nc4ccc5ncccc5c4F)ncnc3c2)C1` (mixture of isomers) [Example 84, N-(5-fluoroquinolin-6-yl)-7-((R)-3-methoxypyrrolidin-1-yl)-5-((R)-1-(oxetan-3-yl)ethoxy)quinazolin-4-amine and N-(5-fluoroquinolin-6-yl)-7-((S)-3-methoxypyrrolidin-1-yl)-5-((R)-1-(oxetan-3-yl)ethoxy)quinazolin-4-amine], the IC50 on EGFR L858R is below 10 nM; on EGFR (d746-750), below 10 nM; in test [1], at most 10 nM.

As for `C[C@H](CN(C)C)Oc1cc(N2CCS(=O)(=O)CC2)cc2ncnc(Nc3ccc4ncccc4c3F)c12` [Example 81, (R)-4-(5-((1-(dimethylamino)propan-2-yl)oxy)-4-((5-fluoroquinolin-6-yl)amino)quinazolin-7-yl)thiomorpholine 1,1-dioxide], the IC50 (on EGFR L858R; on EGFR (d746-750); in test [1]) was above 50.1 nM throughout.

In the case of `CN(C)C1(COc2cc(-c3cnn(C)c3)cc3ncnc(Nc4ccc5ncccc5c4F)c23)COC1` [Example 21, 5-((3-(dimethylamino)oxetan-3-yl)methoxy)-N-(5-fluoroquinolin-6-yl)-7-(1-methyl-1H-pyrazol-4-yl)quinazolin-4-amine], the IC50 on EGFR L858R was 10.1 to 50 nM; on EGFR (d746-750) it was below 10 nM; in test [1], 10.1 to 50 nM.

For the molecule `COC[C@@H](C)Oc1cc(-c2cnn(C)c2)cc2ncnc(Nc3ccc4ncccc4c3F)c12` [Example 31, (R)—N-(5-fluoroquinolin-6-yl)-5-((1-methoxypropan-2-yl)oxy)-7-(1-methyl-1H-pyrazol-4-yl)quinazolin-4-amine], the results for the IC50 (at EGFR L858R; on EGFR (d746-750); in test [1]) were below 10 nM, below 10 nM and at most 10 nM, respectively.

In the case of `C[C@H](CN(C)C)Oc1cc(C2CC2)cc2ncnc(Nc3ccc4ncccc4c3F)c12` [Example 149, (R)-7-cyclopropyl-5-((1-(dimethylamino)propan-2-yl)oxy)-N-(5-fluoroquinolin-6-yl)quinazolin-4-amine], the IC50 on EGFR L858R was above 50.1 nM; on EGFR (d746-750) it was 10.1 to 50 nM; in test [1], above 50.1 nM.

As to `C[C@@H](CN(C)C)Oc1cc(-c2cnn(C)c2)cc2ncnc(Nc3ccc4ncccc4c3)c12` (single isomer, unassigned) [Example 44, (S)-5-((1-(dimethylamino)propan-2-yl)oxy)-7-(1-methyl-1H-pyrazol-4-yl)-N-(quinolin-6-yl)quinazolin-4-amine or (R)-5-((1-(dimethylamino)propan-2-yl)oxy)-7-(1-methyl-1H-pyrazol-4-yl)-N-(quinolin-6-yl)quinazolin-4-amine], the IC50 is below 10 nM at EGFR L858R (setting [2]), below 10 nM at EGFR (d746-750) (setting [2]) and at most 10 nM in test [1].

For the molecule `C[C@@H](Oc1cc(N2CC[C@H](N(C)C)C2)cc2ncnc(Nc3ccc4ncccc4c3F)c12)C1COC1` [Example 80, 7—((S)-3-(dimethylamino)pyrrolidin-1-yl)-N-(5-fluoroquinolin-6-yl)-5-((R)-1-(oxetan-3-yl)ethoxy)quinazolin-4-amine], the figures for the IC50 (at EGFR L858R; on EGFR (d746-750); in test [1]) were below 10 nM, below 10 nM and at most 10 nM, respectively.

Regarding `C[C@H](CN(C)C)Oc1cc(N2CCC3(COC3)C2)cc2ncnc(Nc3ccc4ncccc4c3F)c12` [Example 74, (R)-5-((1-(dimethylamino)propan-2-yl)oxy)-N-(5-fluoroquinolin-6-yl)-7-(2-oxa-6-azaspiro[3.4]octan-6-yl)quinazolin-4-amine], the IC50 at EGFR L858R was 10.1 to 50 nM; at EGFR (d746-750) it was below 10 nM; in test [1], 10.1 to 50 nM.

As to `C[C@H](CN(C)C)Oc1cc(N2C3COCC2C3)cc2ncnc(Nc3ccc4ncccc4c3F)c12` [Example 89, 7-(3-oxa-6-azabicyclo[3.1.1]heptan-6-yl)-5-(((R)-1-(dimethylamino)propan-2-yl)oxy)-N-(5-fluoroquinolin-6-yl)quinazolin-4-amine], the IC50 (at EGFR L858R; on EGFR (d746-750); in test [1]) was above 50.1 nM each time.

Turning to `CC(=O)N1C2CC1CN(c1cc(O[C@H](C)CN(C)C)c3c(Nc4ccc5ncccc5c4F)ncnc3c1)C2` [Example 151, 1-(3-(5-(((R)-1-(dimethylamino)propan-2-yl)oxy)-4-((5-fluoroquinolin-6-yl)amino)quinazolin-7-yl)-3,6-diazabicyclo[3.1.1]heptan-6-yl)ethan-1-one], the IC50 is above 50.1 nM on EGFR L858R, 10.1 to 50 nM at EGFR (d746-750) and above 50.1 nM in test [1].

Turning to `C[C@H](Oc1cc(-c2cnn(C)c2)cc2ncnc(Nc3ccc4ncccc4c3F)c12)C1COC1` (single isomer, unassigned) [Example 2, (S)—N-(5-fluoroquinolin-6-yl)-7-(1-methyl-1H-pyrazol-4-yl)-5-(1-(oxetan-3-yl)ethoxy)quinazolin-4-amine or (R)—N-(5-fluoroquinolin-6-yl)-7-(1-methyl-1H-pyrazol-4-yl)-5-(1-(oxetan-3-yl)ethoxy)quinazolin-4-amine], the IC50 was below 10 nM on EGFR L858R (setting [2]), below 10 nM at EGFR (d746-750) (setting [2]) and at most 10 nM in test [1].

For `C[C@@H](Oc1cc(-c2cnn(CC(C)(C)O)c2)cc2ncnc(Nc3ccc4ncccc4c3F)c12)C1COC1` [Example 48, (R)-1-(4-(4-(5-fluoroquinolin-6-ylamino)-5-(1-(oxetan-3-yl)ethoxy)quinazolin-7-yl)-1H-pyrazol-1-yl)-2-methylpropan-2-ol], the IC50 at EGFR L858R is below 10 nM; at EGFR (d746-750), below 10 nM; in test [1] it was at most 10 nM.

As to `C[C@H](Oc1cc(-c2cnn(C)c2)cc2ncnc(Nc3ccc4ncccc4c3F)c12)[C@@H](C)O` (single isomer, unassigned) [Example 132, (2R,3S)-3-((4-((5-fluoroquinolin-6-yl)amino)-7-(1-methyl-1H-pyrazol-4-yl)quinazolin-5-yl)oxy)butan-2-ol or (2S,3R)-3-((4-((5-fluoroquinolin-6-yl)amino)-7-(1-methyl-1H-pyrazol-4-yl)quinazolin-5-yl)oxy)butan-2-ol], the IC50 at EGFR L858R (setting [2]) is below 10 nM; on EGFR (d746-750) (setting [2]), below 10 nM; in test [1], at most 10 nM.

For `COCCn1cc(-c2cc(O[C@H](C)C3COC3)c3c(Nc4ccc5ncccc5c4F)ncnc3c2)cn1` [Example 52, (R)—N-(5-fluoroquinolin-6-yl)-7-(1-(2-methoxyethyl)-1H-pyrazol-4-yl)-5-(1-(oxetan-3-yl)ethoxy)quinazolin-4-amine], the IC50 on EGFR L858R was below 10 nM; at EGFR (d746-750) it was below 10 nM; in test [1], at most 10 nM.
